Measurements reported in patent publication US7279550B2, “Irreversible cysteine protease inhibitors of legumain” (Probiodrug AG, priority 2001, dated 2007).

Columns and labels:
legumain [1] = biological target: T1, legumain (Homo sapiens, UniProt Q99538); assay: Fluorogenic continuous rate assay of legumain activity, substrate Z-Ala-Ala-Asn-AMC (kobs/[I]); assay type: biochemical; conditions: for kobs/[l] (second-order rate constant for the inactivation of legumain): substrate Z-Ala-Ala-Asn-AMC, 37° C. or 30° C., sodium citrate buffer, 1 mM dithiothreitol, 1 mM EDTA, approximate second-order inactivation constants
T1 sequence (Q99538 18-323): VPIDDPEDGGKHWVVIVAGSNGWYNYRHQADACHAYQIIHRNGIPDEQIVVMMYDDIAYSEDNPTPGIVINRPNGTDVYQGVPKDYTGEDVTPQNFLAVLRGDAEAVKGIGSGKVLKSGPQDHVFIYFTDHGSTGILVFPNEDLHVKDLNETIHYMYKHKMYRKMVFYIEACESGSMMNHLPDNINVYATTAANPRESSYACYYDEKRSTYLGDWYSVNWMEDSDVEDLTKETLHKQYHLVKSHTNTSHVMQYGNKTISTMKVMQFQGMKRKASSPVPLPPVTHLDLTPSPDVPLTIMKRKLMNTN
Procedure: The legumain activity was determined in a fluorogenic continuos rate assay using the substrate Z-Ala-Ala-Asn-AMC on a Kontron spectrofluorometer SFM25 (exitation 380; emission 460) equipped with a four cell changer and controlled by an IBM-compatible personal computer. The obtained data were analyzed with the software FLUCOL^(38). The assay were done at 37° C. or 30° C., using a sodium citrate buffer (39.5 mM citric acid/121 mM Na2HPO4) containing 1 mM dithiothreitol and 1 mM EDTA. Additionally, 0.1% (w/v) Chaps or 0.015% (w/v) Brij 35 was added.
The inhibition progress curves were analyzed using non-linear curve fitting software Prism Graph Pad to compute the kobs values. Approximate second-order inactivation constants (kobs/[I]) were calculated for all compounds.

legumain [2] = biological target: T1, legumain; assay: Determination of Ki-values, legumain, substrate Z-Ala-Ala-Asn-AMC; assay type: biochemical; conditions: HEPES pH 7.6, 30° C.; substrate 0.05, 0.1, 0.2 and 0.4 mM
Procedure: 100 μl inhibitor stock solution were mixed with 100 μl buffer (HEPES pH 7.6) and 50 μl substrate Z-Ala-Ala-Asn-AMC and preincubated at 30° C. Reaction was started by addition of 20 μl enzyme solution. Formation of the product AMC was measured on a Kontron spectrofluorometer SFM25 (exitation 380; emission 460) and slopes were calculated. Legumain activity was measured at final substrate concentrations of 0.05, 0.1, 0.2, and 0.4 mM and further 7 inhibitor concentrations covering the IC50 concentration. Calculations were performed using the GraFit 4.0.13 (Erithacus) Software.

Compound	kobs/[l] (second-order rate constant for the inactivation of legumain) (legumain [1]) [M⁻¹ s⁻¹]	also measured
COC(=O)/C=C/[C@H](CC(N)=O)NC(=O)[C@H](C)NC(=O)[C@H](C)NC(=O)OCc1ccccc1 [Compound 5, Methyl (S)-(E)-4-[Cbz-L-Ala-L-Ala]amino-6-amino-6-oxo-2-hexenoate]	543	–
CCOC(=O)/C=C/[C@H](CC(N)=O)NC(=O)[C@H](C)NC(=O)[C@H](C)NC(=O)OCc1ccccc1 [Compound 6, Ethyl (S)-(E)-4-[Cbz-L-Ala-L-Ala]amino-6-amino-6-oxo-2-hexenoate]	456	–
C=CCOC(=O)/C=C/[C@H](CC(N)=O)NC(=O)[C@H](C)NC(=O)[C@H](C)NC(=O)OCc1ccccc1 [Compound 7, Allyl (S)-(E)-4-[Cbz-L-Ala-L-Ala]amino-6-amino-6-oxo-2-hexenoate]	776	–
CC(NC(=O)OCc1ccccc1)C(=O)NC(C)C(=O)N[C@H](/C=C/C(=O)O)CC(N)=O (stereo partly drawn) [Compound 8, (S)-(E)-4-[Cbz-L-Ala-L-Ala]amino-6-amino-6-oxo-2-hexenoic acid]	4	–
COC(=O)/C(C)=C/[C@H](CC(N)=O)NC(=O)C(C)NC(=O)C(C)NC(=O)OCc1ccccc1 (stereo partly drawn) [Compound 9, Methyl (S)-(E)-4-[Cbz-L-Ala-L-Ala]amino-6-amino-2-methyl-6-oxo-2-hexenoate]	2	–
CCOC(=O)/C(C)=C/[C@H](CC(N)=O)NC(=O)C(C)NC(=O)C(C)NC(=O)OCc1ccccc1 (stereo partly drawn) [Compound 10, Ethyl (S)-(E)-4-[Cbz-L-Ala-L-Ala]amino-6-amino-2-methyl-6-oxo-2-hexenoate]	2	–
C/C(=C\[C@H](CC(N)=O)NC(=O)[C@H](C)NC(=O)[C@H](C)NC(=O)OCc1ccccc1)C(=O)O [Compound 11, (S)-(E)-4-[Cbz-L-Ala-L-Ala]amino-6-amino-2-methyl-6-oxo-2-hexenoic acid]	<1	–
CC(NC(=O)OCc1ccccc1)C(=O)NC(C)C(=O)NN(CC(N)=O)C(=O)CCl [Compound 18, 2-[2-(Cbz-L-Ala-L-Ala)-1-(chloroacetyl)hydrazino]acetamide]	139088	second-order rate constant for the inactivation of legumain, fold higher than that of the Michael acceptor inhibitors (legumain [1]; compared with the Michael acceptor inhibitors): approximately 200 fold
C[C@H](NC(=O)OCc1ccccc1)C(=O)N[C@@H](C)C(=O)N[C@@H](CC(N)=O)C(=O)NOC(=O)c1ccccc1 [Compound 20, [Cbz-L-Ala-L-Ala-L-Asn]-O-benzoylhydroxamate]	–	Ki (legumain [2]): 3.1 µM
C[C@H](NC(=O)OCc1ccccc1)C(=O)N[C@@H](C)C(=O)NN(CC(N)=O)C(=O)CBr [Compound 22, 2-[2-(Cbz-L-Ala-L-Ala)-1-(bromoacetyl)hydrazino]acetamide]	84000	inhibition of legumain (in words) (legumain [1]): potent inhibitor
C[C@H](NC(=O)OCc1ccccc1)C(=O)N[C@@H](C)C(=O)NN(CC(N)=O)C(=O)COC(=O)c1ccccc1 [Compound 24, 2-[2-(Cbz-L-Ala-L-Ala)-1-(benzoyloxyacetyl)hydrazino]acetamide]	13	inhibition of legumain (in words) (legumain [1]): only moderate inhibition
Diethyl [(S)-(E)-3-[Cbz-L-Ala-L-Ala]amino-5-amino-5-oxo-1-petenylphosphate [Compound 13]	<1	–
Methyl [(S)-(E)-3-[Cbz-L-Ala-L-Ala]amino-5-amino-5-oxo-1-petene]-sulfonate [Compound 12]	30	–
